From article PMC6797804, “Histone H3K23-specific acetylation by MORF is coupled to H3K14 acylation” (Nature Communications, 2019)

Assays:
[1] = test system: MORFN F287A complex; experiment: HAT assay, MORFN F287A complex overexpressed in 293T cells; assay type: biochemical; conditions: H3K23ac peptide residues 1–29, 3H-Ac-CoA, pH 8, 30 min at 30 °C, CPM, n = 2
Description: Cells were harvested 48 h post-co-transfection and lysed in high-salt buffer (450 mM NaCl, 50 mM Tris-HCl (pH 8.0), 1% TX-100, 2 mM MgCl2, 0.1 mM ZnCl2, 2 mM EDTA, 10% glycerol) supplemented with protease inhibitor mixture. The NaCl concentration was reduced to 225 mM and the whole cell extract centrifuged at 14,000 rpm for 30 min. […] FLAG beads were next washed with the 225 mM NaCl buffer and eluted with 200 μg/ml of 3× FLAG peptide (Sigma).
In Fig. 4e and Supplementary Fig. 7, FLAG-tagged MORF proteins were overexpressed and prepared from transiently transfected 293T cells. Briefly, approximately 2 mg of total cell extract was incubated with 25 μl of M2-agarose beads (Sigma) overnight at 4 °C. […]
Acetyltransferase activity of the purified complexes was measured with 0.125 µCi of ^3H labeled Ac-CoA (2.1 Ci/mmol; PerkinElmer Life Sciences). […] The reactions were then captured on P81 filter paper, the free H3-labeled Ac-CoA was washed away and the paper was analyzed using Liquid Scintillation. […]
In Fig. 4e and Supplementary Fig. 7, purified MORF proteins were incubated at 37 °C for indicated times with peptides (1 μg) and 0.1 mM acetyl-CoA in HAT reaction buffer (50 mM Tris, pH 8.0, 0.1 mM EDTA, 10% glycerol, 1 mM PMSF, and 1 mM DTT) in a total volume of 50 μL. Reactions were quenched by flash-freezing in liquid nitrogen and then analyzed by SDS-PAGE and Western blot.

[2] = test system: MORFN complex; experiment: HAT assay, WT MORFN complex overexpressed in 293T cells; assay type: biochemical; conditions: H3 peptides residues 1–29, 3H-Ac-CoA, pH 8, 30 min at 30 °C, CPM, n = 2
Description: (§1) The amounts of native (K562) or overexpressed (293T) MORF complexes were normalized empirically following SDS-PAGE and transfer onto nitrocellulose membrane. Anti-FLAG M2 conjugated to horseradish peroxydase (HRP; Sigma) was used at a 1:10,000 dilution and the immunoblots were visualized using a Western Lightning plus-ECL reagent (Perkin-Elmer). Anti-HA-HRP (clone 3F10, Roche) was used at a 1:2000 dilution.

[3] = test system: native MORF complex; experiment: HAT assay, native MORF complex from K562 cells; assay type: biochemical, Homo sapiens; conditions: native WT MORF complex; H3 peptides residues 1–29, 3H-Ac-CoA, pH 8, 30 min at 30 °C; scintillation CPM; n = 2
Description: For purification of native complexes, after large-scale expansion of K562 clones, tandem affinity purifications (TAP) of MORF and MOZ complexes were performed on nuclear extracts as previously described[43]. Briefly, nuclear extracts were prepared following standard procedures and precleared with CL6B Sepharose beads.
as §1

H3K23ac: H3 peptide (residues 1–29) pre-acetylated at Lys23
HAT activity of MORFN F287A complex, in words [1]: substantially reduced residual enzymatic activity | decrease in HAT activity relative to unmodified H3 peptide ([2]; WT MORFN complex (293T)): ~ 7 fold | HAT activity of MORFN complex, in words ([2]; WT MORFN complex): substantially reduced residual enzymatic activity | decrease in HAT activity relative to unmodified H3 peptide [3]: ~ 12 fold
